Laboratory results as given in ChEMBL document CHEMBL1817568, “Novel hybrids of fluconazole and furanones: design, synthesis and antifungal activity” (2011).
≈ marks a conversion by molar mass, not a printed value. Calls of active or inactive are those of the source. No cut-off for these calls is given here.

How the values were obtained:
Candida albicans [1] = test: Antifungal activity against Candida albicans ATCC 24433 at 4 ug/ml by broth dilution method; type: functional, organism-based
Nakaseomyces glabratus [2] = test: Antifungal activity against Candida glabrata ATCC 90030 at 4 ug/ml by broth dilution method; type: functional, organism-based
Pichia kudriavzevii [3] = test: Antifungal activity against Candida krusei ATCC 6258 at 4 ug/ml by broth dilution method; type: functional, organism-based
Candida tropicalis [4] = test: Antifungal activity against Candida tropicalis ATCC 750 at 4 ug/ml by broth dilution method; type: functional, organism-based
Cryptococcus neoformans [5] = test: Antifungal activity against Cryptococcus neoformans ATCC 34664 at 4 ug/ml by broth dilution method; type: functional, organism-based
Aspergillus niger [6] = test: Antifungal activity against Aspergillus niger ATCC 16404 at 4 ug/ml by broth dilution method; type: functional, organism-based
Aspergillus fumigatus [7] = test: Antifungal activity against Aspergillus fumigatus ATCC 46645 at 4 ug/ml by broth dilution method; type: functional, organism-based
Fusarium proliferatum [8] = test: Antifungal activity against Fusarium proliferatum ATCC 10052 at 4 ug/ml by broth dilution method; type: functional, organism-based
Candida albicans [9] = test: Antifungal activity against Candida albicans ATCC 24433 by broth dilution method; type: functional
Nakaseomyces glabratus [10] = test: Antifungal activity against Candida glabrata ATCC 90030 by broth dilution method; type: functional
Candida tropicalis [11] = test: Antifungal activity against Candida tropicalis ATCC 750 by broth dilution method; type: functional
Cryptococcus neoformans [12] = test: Antifungal activity against Cryptococcus neoformans ATCC 34664 by broth dilution method; type: functional
Pichia kudriavzevii [13] = test: Antifungal activity against Candida krusei ATCC 6258 at 8 ug/ml by broth dilution method; type: functional, organism-based
Aspergillus niger [14] = test: Antifungal activity against Aspergillus niger ATCC 16404 at 8 ug/ml by broth dilution method; type: functional, organism-based
Aspergillus fumigatus [15] = test: Antifungal activity against Aspergillus fumigatus ATCC 46645 at 8 ug/ml by broth dilution method; type: functional, organism-based
Fusarium proliferatum [16] = test: Antifungal activity against Fusarium proliferatum ATCC 10052 at 8 ug/ml by broth dilution method; type: functional, organism-based
Pichia kudriavzevii [17] = test: Antifungal activity against Candida krusei ATCC 6258 by broth dilution method; type: functional
Pichia kudriavzevii [18] = test: Antifungal activity against Candida krusei ATCC 6258 at 128 ug/ml by broth dilution method; type: functional, organism-based
Aspergillus niger [19] = test: Antifungal activity against Aspergillus niger ATCC 16404 at 128 ug/ml by broth dilution method; type: functional, organism-based
Aspergillus fumigatus [20] = test: Antifungal activity against Aspergillus fumigatus ATCC 46645 at 128 ug/ml by broth dilution method; type: functional, organism-based
Fusarium proliferatum [21] = test: Antifungal activity against Fusarium proliferatum ATCC 10052 at 128 ug/ml by broth dilution method; type: functional, organism-based
Pichia kudriavzevii [22] = test: Antifungal activity against Candida krusei ATCC 6258 at 16 ug/ml by broth dilution method; type: functional, organism-based

Row | SMILES | Activity (Pichia kudriavzevii [3]) | Activity (Candida tropicalis [4]) | Activity (Cryptococcus neoformans [5]) | Activity (Aspergillus niger [6]) | Activity (Aspergillus fumigatus [7]) | Activity (Fusarium proliferatum [8]) | MIC50 (Candida albicans [9]) | MIC50 (Nakaseomyces glabratus [10]) | MIC50 (Candida tropicalis [11]) | MIC50 (Cryptococcus neoformans [12]) | Activity (Aspergillus niger [14]) | Activity (Aspergillus fumigatus [15]) | MIC50 (Pichia kudriavzevii [17]) | also measured
1 | O=C1O/C(=C\c2ccc(OCC(O)(Cn3cncn3)c3ccc(F)cc3F)cc2)C(c2ccc(F)cc2F)=C1c1ccc(Cl)c(Cl)c1 (racemic) | inactive | inactive | inactive | inactive | inactive | inactive |  |  |  |  |  |  |  | Activity (Candida albicans [1]): inactive; Activity (Nakaseomyces glabratus [2]): inactive
2 | Cc1ccc(C2=C(c3ccc(OCC(O)(Cn4cncn4)c4ccc(F)cc4F)cc3)C(=O)OC2)cc1 (racemic) | inactive |  |  | inactive | inactive | inactive | 0.5 µg/mL (≈ 0.993 µM) | 1 µg/mL (≈ 1.99 µM) | 2 µg/mL (≈ 3.97 µM) | 2 µg/mL (≈ 3.97 µM) |  |  |  | 
3 | CC1OC(=O)C(c2ccc(OCC(O)(Cn3cncn3)c3ccc(F)cc3F)cc2)=C1c1ccc(F)cc1F (racemic) |  |  |  |  |  |  | 1 µg/mL (≈ 1.85 µM) | 1 µg/mL (≈ 1.85 µM) | 8 µg/mL (≈ 14.8 µM) | 4 µg/mL (≈ 7.41 µM) | inactive | inactive |  | Activity (Pichia kudriavzevii [13]): inactive
4 | COc1ccc(C2=C(c3ccc(OCC(O)(Cn4cncn4)c4ccc(F)cc4F)cc3)C(=O)OC2)cc1 (racemic) |  |  |  |  |  |  | 1 µg/mL (≈ 1.92 µM) | 1 µg/mL (≈ 1.92 µM) | 4 µg/mL (≈ 7.7 µM) | 2 µg/mL (≈ 3.85 µM) | inactive | inactive |  | Activity (Pichia kudriavzevii [13]): inactive; Activity (Fusarium proliferatum [16]): inactive
5 | O=C1OCC(c2ccc(F)cc2F)=C1c1ccc(Cl)c(Cl)c1 | inactive | inactive | inactive | inactive | inactive | inactive |  |  |  |  |  |  |  | Activity (Candida albicans [1]): inactive; Activity (Nakaseomyces glabratus [2]): inactive
6 | COc1cc(C2=C(c3ccc(Br)cc3)COC2=O)ccc1OCC(O)(Cn1cncn1)c1ccc(F)cc1F (racemic) | inactive |  |  | inactive | inactive | inactive | 1 µg/mL (≈ 1.67 µM) | 2 µg/mL (≈ 3.34 µM) | 4 µg/mL (≈ 6.68 µM) | 8 µg/mL (≈ 13.4 µM) |  |  |  | 
7 | O=C1O/C(=C\c2ccc(OCC(O)(Cn3cncn3)c3ccc(F)cc3F)cc2)C(c2ccc(F)cc2F)=C1c1ccc(Cl)cc1 (racemic) | inactive | inactive | inactive | inactive | inactive | inactive |  |  |  |  |  |  |  | Activity (Candida albicans [1]): inactive; Activity (Nakaseomyces glabratus [2]): inactive
8 | O=C1OCC(c2ccc(F)cc2)=C1c1ccc(OCC(O)(Cn2cncn2)c2ccc(F)cc2F)cc1 (racemic) |  |  |  |  |  |  | 0.25 µg/mL (≈ 0.493 µM) | 0.5 µg/mL (≈ 0.985 µM) | 1 µg/mL (≈ 1.97 µM) | 1 µg/mL (≈ 1.97 µM) | inactive | inactive | 8 µg/mL (≈ 15.8 µM) | Activity (Fusarium proliferatum [16]): inactive
9 | O=C1OC(c2ccccc2)=N/C1=C\c1ccc(OCC(O)(Cn2cncn2)c2ccc(F)cc2F)cc1 (racemic) | inactive | inactive | inactive | inactive | inactive | inactive | 4 µg/mL (≈ 7.96 µM) | 4 µg/mL (≈ 7.96 µM) |  |  |  |  |  | 
10 | O=C1OCC(c2ccc(Br)cc2)=C1c1ccc(OCC(O)(Cn2cncn2)c2ccc(F)cc2F)cc1 (racemic) |  |  |  |  |  |  | 0.5 µg/mL (≈ 0.88 µM) | 2 µg/mL (≈ 3.52 µM) | 4 µg/mL (≈ 7.04 µM) | 1 µg/mL (≈ 1.76 µM) | inactive | inactive | 8 µg/mL (≈ 14.1 µM) | Activity (Fusarium proliferatum [16]): inactive
11 | O=C1OCC(c2ccccc2)=C1c1ccc(OCC(O)(Cn2cncn2)c2ccc(F)cc2F)cc1 (racemic) | inactive |  | inactive | inactive | inactive | inactive | 0.5 µg/mL (≈ 1.02 µM) | 0.5 µg/mL (≈ 1.02 µM) | 2 µg/mL (≈ 4.09 µM) |  |  |  |  | 
12 | O=C(O)Cc1ccc(OCC(O)(Cn2cncn2)c2ccc(F)cc2F)cc1 (racemic) |  |  |  |  |  |  | 8 µg/mL (≈ 20.5 µM) | 8 µg/mL (≈ 20.5 µM) | 64 µg/mL (≈ 164 µM) | 64 µg/mL (≈ 164 µM) |  |  |  | Activity (Pichia kudriavzevii [18]): inactive; Activity (Aspergillus niger [19]): inactive; Activity (Aspergillus fumigatus [20]): inactive; Activity (Fusarium proliferatum [21]): inactive
13 | COc1cc(C=O)cc(OC)c1OCC(O)(Cn1cncn1)c1ccc(F)cc1F (racemic) |  |  |  |  |  |  | 1 µg/mL (≈ 2.38 µM) | 1 µg/mL (≈ 2.38 µM) | 64 µg/mL (≈ 153 µM) | 8 µg/mL (≈ 19.1 µM) |  |  |  | Activity (Pichia kudriavzevii [18]): inactive; Activity (Aspergillus niger [19]): inactive; Activity (Aspergillus fumigatus [20]): inactive; Activity (Fusarium proliferatum [21]): inactive
14 | COc1cc(/C=C2\N=C(c3ccccc3)OC2=O)ccc1OCC(O)(Cn1cncn1)c1ccc(F)cc1F (racemic) | inactive | inactive | inactive | inactive | inactive | inactive |  |  |  |  |  |  |  | Activity (Candida albicans [1]): inactive; Activity (Nakaseomyces glabratus [2]): inactive
15 | COc1ccc(/C=C2\N=C(c3ccccc3)OC2=O)cc1OCC(O)(Cn1cncn1)c1ccc(F)cc1F (racemic) | inactive | inactive | inactive | inactive | inactive | inactive |  |  |  |  |  |  |  | Activity (Candida albicans [1]): inactive; Activity (Nakaseomyces glabratus [2]): inactive
16 | COc1cc(C2=C(c3ccc(F)cc3)COC2=O)ccc1OCC(O)(Cn1cncn1)c1ccc(F)cc1F (racemic) |  |  |  |  |  |  | 0.5 µg/mL (≈ 0.93 µM) | 0.5 µg/mL (≈ 0.93 µM) | 2 µg/mL (≈ 3.72 µM) | 2 µg/mL (≈ 3.72 µM) | inactive | inactive |  | Activity (Pichia kudriavzevii [22]): inactive; Activity (Fusarium proliferatum [16]): inactive
17 | OC(Cn1cncn1)(Cn1cncn1)c1ccc(F)cc1F [FLUCONAZOLE] |  |  |  |  |  |  | 0.25 µg/mL (≈ 0.816 µM) | 1 µg/mL (≈ 3.27 µM) | 1 µg/mL (≈ 3.27 µM) | 2 µg/mL (≈ 6.53 µM) |  |  | 32 µg/mL (≈ 104 µM) | Activity (Aspergillus niger [19]): inactive; Activity (Aspergillus fumigatus [20]): inactive; Activity (Fusarium proliferatum [21]): inactive
18 | O=Cc1ccc(OCC(O)(Cn2cncn2)c2ccc(F)cc2F)cc1 (racemic) |  |  |  |  |  |  | 0.5 µg/mL (≈ 1.39 µM) | 0.5 µg/mL (≈ 1.39 µM) | 4 µg/mL (≈ 11.1 µM) | 2 µg/mL (≈ 5.57 µM) |  |  | 16 µg/mL (≈ 44.5 µM) | Activity (Aspergillus niger [19]): inactive; Activity (Aspergillus fumigatus [20]): inactive; Activity (Fusarium proliferatum [21]): inactive
19 | O=C1OCC(c2ccc(F)cc2F)=C1c1ccc(OCC(O)(Cn2cncn2)c2ccc(F)cc2F)cc1 (racemic) |  |  |  |  |  |  | 0.5 µg/mL (≈ 0.952 µM) | 0.5 µg/mL (≈ 0.952 µM) | 2 µg/mL (≈ 3.81 µM) | 2 µg/mL (≈ 3.81 µM) | inactive | inactive | 8 µg/mL (≈ 15.2 µM) | Activity (Fusarium proliferatum [16]): inactive
20 | COc1cc(C=O)ccc1OCC(O)(Cn1cncn1)c1ccc(F)cc1F (racemic) |  |  |  |  |  |  | 0.5 µg/mL (≈ 1.28 µM) | 1 µg/mL (≈ 2.57 µM) | 8 µg/mL (≈ 20.5 µM) | 16 µg/mL (≈ 41.1 µM) |  |  | 128 µg/mL (≈ 329 µM) | Activity (Aspergillus niger [19]): inactive; Activity (Aspergillus fumigatus [20]): inactive; Activity (Fusarium proliferatum [21]): inactive
